90 compounds from a melting point compilation (Tetko et al.; mined from patent text by program, amines drawn as free bases though some values may be those of a salt) can be followed below.

In general, melting point refers to the temperature, or range, at which the solid turns liquid. `COC(=O)C(=CC(=CN(C)C)c1ccc(Cl)cc1[N+](=O)[O-])[N+](=O)[O-]` displayed a melting point of 193 to 197 °C.
In the case of `CCCCCN(CCC12CC3CC(CC(C3)C1)C2)C(=O)NCC(C)Cc1ccncc1` (stereo not given) it was 103 to 104 °C.
In the case of `Nc1ccc(CC2CCN(S(=O)(=O)c3ccccc3)CC2)cc1` it was 158 °C.
In the case of `NC(=O)c1nc(-c2cccc(O)c2)nc2c1[nH]c(=O)n2-c1cccc2c1CCCC2` it was over 250 °C.
Compound `O=C1c2cc([N+](=O)[O-])ccc2CC2CCCCCN12` (stereo not given) displayed a melting point of 118 to 119 °C.
In the case of `COc1ccc(N)c2c1oc1ccccc12` it was 167 to 169 °C; in that of `COc1cn2nc(OCCCN3CCC(OC(c4ccccc4)c4ccccc4)CC3)ccc2n1`, 133 to 135 °C.
In the case of `CNC(=O)C1Cc2c(nc(C)n2C)C2=C1C(=O)CC1(Cc3ccccc3C1)N2` (stereo not given) it was 93 to 94 °C; in that of `CC(C)(C)OC(=O)CNC(=O)CC(c1ccccc1)c1ccccc1`, 77 to 81 °C; in that of `Nn1cccc1-c1ccccc1`, 80 to 82 °C.
The compound `O=c1c2ccc(O)cc2nc(-c2ccc(O)cc2)n1-c1ccc(OCCCl)cc1` had a melting point of 285 to 287 °C.
`O=C1CC(c2ccccc2O)=Nc2ccc(N3CCOCC3)cc21` returned a melting point of 290 to 291 °C.
In the case of `O=[N+]([O-])c1cc(C(F)(F)C(F)(F)C(F)(F)/C=C/C(F)(F)C(F)(F)C(F)(F)c2ccc(O)c([N+](=O)[O-])c2)ccc1O` it was 122 to 123 °C; in that of `CCCC(OC(=O)c1ccncc1)C(=O)O` (racemic), 152 to 153 °C; in that of `CC(=O)C1=C(O)CC(C)OC1=O` (stereo not given), 96 to 98 °C.
In the case of `COCC(NC(C)=O)C(=O)NCc1ccccc1` (stereo not given) it was 142 to 143 °C.
In the case of `CCN(CC)Cc1ccnc(F)c1CNC(=O)c1cnc2cc(I)ccc2n1` it was 147 to 149 °C; in that of `CCCOc1cc(S(C)(=O)=O)ccc1-c1ccc(C#N)c(=O)[nH]1`, 241 to 242 °C; in that of `O=Cc1ccc2c(c1)COC2=O`, 160 °C.
`C=C(C(=O)OC)C(O)c1c(C)n(C(=O)OC(C)(C)C)c2ccc(C)c(O)c12` (stereo not given) came in with a melting point of 155 to 156 °C.
In the case of `CCCCOP(=O)(CCCCC1(C(=O)NCC(F)(F)F)c2ccccc2-c2ccccc21)OCCCC` it was 71 to 74 °C; in that of `COc1ccc(-c2ccc(OC(CCC3=CCCCC3)C(=O)O)cc2)cc1` (stereo not given), 152 to 154 °C; in that of `CC(C)c1cccc(C(C)C)c1NC(=O)NCC1=CCCc2ccccc21`, 170 to 171 °C.
Consider `N#Cc1ccc(OCCCc2cn(C(c3ccccc3)(c3ccccc3)c3ccccc3)cn2)cc1`, for which the melting point was in the range of 187 to 188 °C.
Regarding `CCC(=O)c1ccc(-c2ncccc2S(=O)(=O)Nc2ncc(C)nc2OC)cc1`, the melting point was 126 to 127 °C.
In the case of `COc1cc(NC(=O)N(CCCCCC(=O)O)c2ccccc2)c(O)c(C(C)(C)C)c1` it was 95 to 98 °C.
In the case of `IC#CCOCc1cccnc1` it was 109 to 110 °C; in that of `COc1ccc2nc(OC)cc(C)c2c1`, 58 to 59 °C; in that of `Cc1oc(-c2cccs2)nc1COc1ccc(CCCCn2ccnc2)cc1`, 85 to 86 °C.
In the case of `C#Cc1ccc2c(c1)C(C)(C)CCS2=O` (stereo not given) it was 105 to 107 °C.
`Fc1ccc2[nH]cc(C3CCC4(CC3)OCCO4)c2c1` registered a melting point of 183 to 185 °C.
The compound `COc1nn(-c2cccc(N3CCCC3=O)c2)c(=O)n(Cc2ccc(Cl)cc2)c1=O` displayed a melting point of 91 to 93 °C.
In the case of `CCC1(C)CC2(NC(=O)N(C)C2=O)C(C)C(C)(CC)N1C` (stereo not given) it was 190 to 195 °C.
In the case of `CCN(CC)C(=O)COc1nc(-c2ccccc2)c2ccccc2n1` it was 88 °C; in that of `COc1ccc2c(ccc3c4cc5c(cc4nnc23)OCO5)c1`, 258 to 260 °C; in that of `CC(C)OC(=O)C(C)Oc1ncn(-c2cccc(C(F)(F)F)c2)n1` (stereo not given), 97 to 99 °C.
In the case of `COC(=O)c1ccc2[nH]c(C#N)c(-c3ccccc3)c2c1` it was 250 to 253 °C.
The compound `CCOC(=O)c1cccc(C#CC2(O)CN3CCC2CC3)c1` (stereo not given) gave a melting point of 155 to 156 °C.
For the compound `O=C(NC1C2CC3CC(C2)CC1C3)C1CCCCN1` (stereo not given), the melting point fell in the range of 112 to 114 °C.
In the case of `Cc1cc(S(=O)(=O)c2ccc(O)cc2)ccc1C1CCN(C)C1` (stereo not given) it was 186 to 188 °C; in that of `Nc1ccc(N2CCN(CCC3(Cc4ccc(F)cc4)OCCO3)CC2)nc1N`, 118 to 119 °C; in that of `CCCCN(CCCC)c1ccc(C=CC=CC2=C(C#N)C(=C(C#N)C#N)OC2(c2ccccc2)C(F)(F)F)c(OC)c1` (stereo not given), 190 to 192 °C.
In the case of `O=C(CCN1CCN(c2cccc(Cl)c2Cl)CC1)N1CCc2ccccc21` it was 157 to 158 °C; in that of `CCOC(=O)CNC(=O)c1cc(F)c(F)cc1N`, 147 °C; in that of `O=C(CCl)N1Cc2ccccc2P1(=O)c1ccccc1` (stereo not given), 167 to 169 °C.
In the case of `COC(=O)C=C1CN=C(c2ccccc2Cl)c2cc(Cl)ccc2N1` it was 154 to 158 °C; in that of `N#Cc1c(-c2ccccc2)c(-c2ccccc2)nn(CCO)c1=O`, 197 to 198 °C.
In turn, `COc1ccc(CNc2nc(OCc3ccccn3)ncc2C(=O)O)cc1Cl` registered a melting point of 201 to 203 °C.
`CC(=O)N1C(=O)C(C(=O)c2cccs2)c2ccccc21` (stereo not given): the melting point is 139 to 140 °C.
In the case of `Nc1cc(OCC2CC2)c(C(=O)NC2CN3CCC2CC3)cc1Cl` (stereo not given) it was 183 to 185 °C; in that of `CC(C)(C)OC(=O)NCCc1ccnc(-c2nc(=O)c3ccccc3s2)c1`, 160 to 161 °C.
`CCOC(=O)CCNC(=O)N(CCCO)c1ccc(-c2ccc(C#N)cc2)cc1` registered a melting point of 102 to 104 °C.
In the case of `CCc1nn(-c2c(Cl)cc(C(F)(F)F)cc2Cl)c(Cl)c1-c1nc(C#N)c(C#N)[nH]1` it was 75 to 78 °C; in that of `COC(=O)c1c(C(F)(F)F)noc1NS(=O)(=O)c1ccccc1`, 100 to 101 °C.
In the case of `Cc1cc(Oc2ccc(Cl)c(C(F)(F)F)c2)ncc1[N+](=O)[O-]` it was 75 to 80 °C; in that of `COc1nc(OC)nc(-n2c(N)nc3cc(Cl)ccc32)n1`, 293 to 296 °C; in that of `CCCCCCC(C)(C)c1cc(O)c2c(c1)oc(=O)c1ccc(O)cc12`, 103 to 108 °C.
In the case of `CCc1cccc(C(O)CCc2ccccc2)c1NC(=O)CC1c2ccccc2Oc2ccccc21` (stereo not given) it was 128 to 129 °C; in that of `COc1cccc(Oc2cccc(-c3ccccc3)c2)c1`, 41 to 42 °C.
In turn, `Nc1nc2c(c(=O)[nH]1)CCc1ccccc1-2` showed a melting point of over 300 °C.
`Nc1nc2c(ncn2CCC(CO)COC(=O)c2ccccc2)c(=O)[nH]1` (stereo not given) displayed a melting point of 156 to 168 °C.
In the case of `COc1cc(Br)c(OC)c(C=O)c1` it was 62 to 64 °C; in that of `COc1ccccc1N1CCN(CCCCN2CCN(c3cccc(Cl)c3)C2=O)CC1`, 87 to 89 °C.
In the case of `Cc1cc(-n2c(C)nc3ccccc32)cc2ccc(=O)[nH]c12` it was 307 to 313 °C.
In the case of `CCOC(=O)c1cc(-c2ccccc2)nn1Cc1ccc(Cl)cc1Cl` it was 104 to 107 °C; in that of `COC(=O)c1cc([N+](=O)[O-])cn1C`, 122 to 124 °C.
Consider `NCCC(=O)NCCCCCNC(=O)Cc1cccc(O)c1`, for which the melting point lay within 109 to 115 °C.
In turn, `COc1cccc2c1CCC(C#N)C2=O` (stereo not given) came in with a melting point of 120 to 122 °C.
For the compound `O=C(c1cc([N+](=O)[O-])cc(C(F)(F)F)c1)N1CCC1`, the melting point was found to be 91 °C.
In the case of `O=C(NC1CCN(CCCc2ccccc2)C1)C12CC3CC(CC(C3)C1)C2` (stereo not given) it was 118 to 120 °C.
Compound `NS(=O)(=O)c1ccc(-n2ccc(C(F)F)n2)c(-c2ccc3c(c2)OCO3)c1` registered a melting point of 214 to 218 °C.
In the case of `CCN(CCNC(=O)Nc1cc(Cl)ccc1CCc1cc(C(C)(C)C)c(O)c(C(C)(C)C)c1)Cc1ccccc1` it was 132 to 133 °C; in that of `O=C(Nc1ccc(N2CCOCC2)c(C(F)(F)F)c1)c1ccc(F)c(OCc2cccnc2)c1`, 160 to 161 °C; in that of `CS(=O)(=O)Nc1ccc(NC(=O)CCl)cc1`, 174 to 177 °C.
`CCCCCCCCN[C@@H]1Cc2cc(OC)c(OC)cc2[C@H]1O` (relative stereo) came in with a melting point of 133 to 135 °C.
In the case of `CN(C)CCCn1c(-c2ccc(Br)cc2)csc1=Nc1ccccc1` it was 110 to 111 °C.
In the case of `Cc1cnc(N)cc1C` it was 113 to 114 °C.
In the case of `O=C(O)CCCNC(=O)c1ccccc1NC(=O)c1ccccc1O` it was 173 to 174 °C; in that of `Cc1oc(-c2ccccc2)nc1COc1ccc(CN(O)C(N)=O)c(Cl)c1`, 145 to 147 °C.
Take `CC1(C)CCC(C)(C)c2cc(-c3cc(-c4ccc(C(=O)O)cc4)ccc3OCCNC3CC3)ccc21`: the melting point came to 233 °C.
In the case of `CC(C)N(C(=O)CO)c1ccccc1` it was 39 °C; in that of `CC(C)=CCn1c(=O)sc2c(=O)[nH]c(N)nc21`, 290 to 292 °C; in that of `COC(=O)c1ccc(-c2nc3ccccc3o2)cc1`, 190 to 191 °C.
In the case of `Cc1ccc(N2CCCN(C(=O)OC(C)(C)C)CC2)cc1[N+](=O)[O-]` it was 103 to 106 °C; in that of `CCN1C(=O)C(NC(=O)C(F)(F)F)CCc2c1ccc(Nc1ncc(Cl)c(N[C@H]3[C@@H](C(N)=O)[C@@H]4C=C[C@H]3C4)n1)c2OC` (stereo not given in full), 167 to 176 °C; in that of `CCN1c2ncc(C3(c4ccccc4)CO3)cc2C(=O)N(C)c2ccc(Cl)nc21` (stereo not given), 105 to 107 °C.
In the case of `Nc1cc(OCC2CCCCO2)c(C(=O)O)cc1Cl` (stereo not given) it was 146 to 148 °C; in that of `NCC(O)COc1ccc(OCC(O)CN)cc1` (stereo not given), 128 to 132 °C.
In turn, `CCCCCCCC(=O)NCCCCO` registered a melting point of 76 to 77 °C.
In the case of `CC(=O)NCc1ccc(CN2CCN(c3nc(C)cc(C)n3)CC2)cc1` it was 127 to 128 °C.
